Measured values from ChEMBL document CHEMBL1201862, “PubChem BioAssay data set” (2004).
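Dose response: 5 concentrations. Exposure: 48 h. Format: 96-well plates. Endpoint: linear interpolation; highest concentration if not reached. GI50 = concentration required for 50% inhibition of growth.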 Calls of active or inactive are those of the source. Rule as the data show it: active = GI50 up to about 1.1 µM and inactive = higher. Where a SMILES comes first, the peptide text is derived from it. [ ]: non-standard residue; d: D form. The star is where a group is joined. Phe(4-NO2) = N[CH](Cc1ccc([N+](=O)[O-])cc1)C(=O)O; Boc = CC(C)(C)OC(=O)*

How the values were obtained:
Experiment in all cases: inhibition of tumour cell growth, NCI panel, 48 h
OVCAR-3 = test system: OVCAR-3
COLO 205 = test system: COLO 205
SW-620 = test system: SW-620
SN12C = test system: SN12C
SF-539 = test system: SF-539
UACC-62 = test system: UACC-62
MDA-N = test system: MDA-N
ACHN = test system: ACHN
RPMI-8226 = test system: RPMI-8226
SK-MEL-28 = test system: SK-MEL-28
MDA-MB-231 = test system: MDA-MB-231
MCF7 = test system: MCF7
EKVX = test system: EKVX
A549 = test system: A549
SK-MEL-5 = test system: SK-MEL-5
IGROV-1 = test system: IGROV-1
SNB-75 = test system: SNB-75
M14 = test system: M14
HCC 2998 = test system: HCC 2998
RXF 393 = test system: RXF 393

SMILES	GI50 (OVCAR-3)	GI50 (COLO 205)	GI50 (SW-620)	GI50 (SN12C)	GI50 (SF-539)	GI50 (UACC-62)	GI50 (MDA-N)	GI50 (ACHN)	GI50 (RPMI-8226)	GI50 (SK-MEL-28)	GI50 (MDA-MB-231)	GI50 (MCF7)	GI50 (EKVX)	GI50 (A549)	GI50 (SK-MEL-5)	GI50 (IGROV-1)	GI50 (SNB-75)	GI50 (M14)	GI50 (HCC 2998)	GI50 (RXF 393)
COc1ccc(/C=N\N2CC(=O)N3C4C=CC(CC4)N3C2=O)cc1 (stereo unspecified)	> 100 µM (inactive)	> 100 µM (inactive)	> 100 µM (inactive)	> 100 µM (inactive)	> 100 µM (inactive)	74.8 µM (inactive)	> 100 µM (inactive)	> 100 µM (inactive)	> 100 µM (inactive)	> 100 µM (inactive)	> 100 µM (inactive)	> 100 µM (inactive)	> 100 µM (inactive)	> 100 µM (inactive)	54.7 µM (inactive)	> 100 µM (inactive)	22.2 µM (inactive)	> 100 µM (inactive)		
COc1cc(C2C3=C(COC3=O)Oc3cc4c(cc32)OCO4)cc(OC)c1OC(C)=O (stereo unspecified)	0.0197 µM (active)	0.027 µM (active)	0.0202 µM (active)	0.619 µM (active)	< 0.01 µM (active)	< 0.01 µM (active)	< 0.01 µM (active)	< 0.01 µM (active)	0.0318 µM (active)		0.038 µM (active)	< 0.012 µM (active)	0.0435 µM (active)	0.0462 µM (active)	< 0.01 µM (active)	0.0239 µM (active)		0.0216 µM (active)	0.0547 µM (active)	< 0.01 µM (active)
Cn1c2ccccc2c(=O)c2cccc(C(=O)NC(CS)C(=O)O)c21 (stereo unspecified)	> 100 µM (inactive)	67.5 µM (inactive)	84.9 µM (inactive)	> 100 µM (inactive)	43.2 µM (inactive)	> 100 µM (inactive)	> 100 µM (inactive)	> 100 µM (inactive)	26.5 µM (inactive)	> 100 µM (inactive)	60.8 µM (inactive)	40.9 µM (inactive)	> 100 µM (inactive)	> 100 µM (inactive)	> 100 µM (inactive)	> 100 µM (inactive)	72.4 µM (inactive)	> 100 µM (inactive)	> 100 µM (inactive)	
C[C@]12[C@@H]3CC[C@H]1[C@@H](O)C(=O)N2CC3		> 100 µM (inactive)	> 100 µM (inactive)	> 100 µM (inactive)		> 100 µM (inactive)	> 100 µM (inactive)	> 100 µM (inactive)	> 100 µM (inactive)	> 100 µM (inactive)	> 100 µM (inactive)	> 100 µM (inactive)	> 100 µM (inactive)	> 100 µM (inactive)	> 100 µM (inactive)	> 100 µM (inactive)	> 100 µM (inactive)	> 100 µM (inactive)	> 100 µM (inactive)	> 100 µM (inactive)
C[C@H]1C(OCCOC2O[C@@H]3O[C@@]4(C)CC[C@H]5[C@H](C)CCC([C@H]2C)[C@@]35O4)O[C@@H]2O[C@@]3(C)CC[C@H]4[C@H](C)CCC1[C@@]24O3 (stereo partly specified)	28.1 µM (inactive)	16.7 µM (inactive)	44.4 µM (inactive)	21 µM (inactive)	55.7 µM (inactive)	61.2 µM (inactive)	38.7 µM (inactive)	40.3 µM (inactive)	58.6 µM (inactive)	61.5 µM (inactive)	27.2 µM (inactive)	37 µM (inactive)		39.8 µM (inactive)	15.3 µM (inactive)	24.8 µM (inactive)	25.9 µM (inactive)	32.1 µM (inactive)	21.6 µM (inactive)	
CCOC(=O)C1C(=O)CC1(C)C (stereo unspecified)	> 10 µM (inactive)	> 10 µM (inactive)	> 10 µM (inactive)	> 10 µM (inactive)	> 10 µM (inactive)	> 10 µM (inactive)	> 10 µM (inactive)	> 10 µM (inactive)	> 10 µM (inactive)	> 10 µM (inactive)	> 10 µM (inactive)	> 10 µM (inactive)	> 10 µM (inactive)	> 10 µM (inactive)	> 10 µM (inactive)	> 10 µM (inactive)		> 10 µM (inactive)	> 10 µM (inactive)	> 10 µM (inactive)
COC(=O)C1CC2CCC1(O[Si](C(C)C)(C(C)C)C(C)C)C(O)C2 (stereo unspecified)	17.3 µM (inactive)	29.4 µM (inactive)	26.4 µM (inactive)	17.9 µM (inactive)		37 µM (inactive)	22 µM (inactive)	22.8 µM (inactive)	17.5 µM (inactive)	19.4 µM (inactive)	17.7 µM (inactive)	14.9 µM (inactive)	16 µM (inactive)	16.8 µM (inactive)	23.1 µM (inactive)	25.8 µM (inactive)	21.9 µM (inactive)	17.3 µM (inactive)	21.8 µM (inactive)	15 µM (inactive)
O=C(O)C(NCc1ccccc1)C(NCc1ccccc1)C(=O)O (stereo unspecified)	> 100 µM (inactive)	> 100 µM (inactive)	> 100 µM (inactive)	> 100 µM (inactive)	> 100 µM (inactive)	> 100 µM (inactive)	> 100 µM (inactive)	> 100 µM (inactive)	> 100 µM (inactive)	> 100 µM (inactive)	> 100 µM (inactive)	> 100 µM (inactive)	> 100 µM (inactive)	> 100 µM (inactive)	> 100 µM (inactive)	> 100 µM (inactive)	> 100 µM (inactive)	> 100 µM (inactive)	> 100 µM (inactive)	
O=C1/C(=C/c2cccs2)N=C(c2ccccc2)N1c1nc2ccccc2s1	> 100 µM (inactive)		86.9 µM (inactive)	> 100 µM (inactive)	> 100 µM (inactive)		91.6 µM (inactive)	> 100 µM (inactive)	7.45 µM (inactive)	> 100 µM (inactive)	> 100 µM (inactive)	49.9 µM (inactive)	49.9 µM (inactive)	41.5 µM (inactive)	> 100 µM (inactive)	16 µM (inactive)		> 100 µM (inactive)	> 100 µM (inactive)	33.3 µM (inactive)
Cc1c(CN2CCOCC2)c(CN2CCOCC2)c(C)n1-c1ccc(Cl)cn1	> 100 µM (inactive)	> 100 µM (inactive)	> 100 µM (inactive)	> 100 µM (inactive)		> 100 µM (inactive)	> 100 µM (inactive)	> 100 µM (inactive)	> 100 µM (inactive)	> 100 µM (inactive)	> 100 µM (inactive)	> 100 µM (inactive)	> 100 µM (inactive)	> 100 µM (inactive)	> 100 µM (inactive)	> 100 µM (inactive)	> 100 µM (inactive)	> 100 µM (inactive)	> 100 µM (inactive)	> 100 µM (inactive)
O=c1c2ccccc2[nH]c2c(Cl)cc(Cl)c(NC3CCCCC3)c12	14.2 µM (inactive)	31.8 µM (inactive)	22.6 µM (inactive)	24.4 µM (inactive)	23.2 µM (inactive)	16.6 µM (inactive)	33.3 µM (inactive)	15.6 µM (inactive)	28.3 µM (inactive)	27 µM (inactive)	29 µM (inactive)	18.7 µM (inactive)	23 µM (inactive)	29.9 µM (inactive)	36.3 µM (inactive)	18.2 µM (inactive)	27.2 µM (inactive)	18.6 µM (inactive)	25.1 µM (inactive)	
Clc1ccc(Oc2ccc(/N=C/c3ccc(Cl)cc3Cl)cc2Cl)cc1	33.8 µM (inactive)	64.7 µM (inactive)	33 µM (inactive)	48.3 µM (inactive)	23.6 µM (inactive)	37.7 µM (inactive)	14.8 µM (inactive)	> 100 µM (inactive)	9.2 µM (inactive)	34.2 µM (inactive)	51.3 µM (inactive)	33.7 µM (inactive)	30.1 µM (inactive)	64.6 µM (inactive)	36.1 µM (inactive)	44.8 µM (inactive)	23.6 µM (inactive)	29.4 µM (inactive)	> 100 µM (inactive)	
COc1cc(CC(C)=O)cc(OC)c1	56.5 µM (inactive)	> 100 µM (inactive)	65.6 µM (inactive)	46.8 µM (inactive)		60.3 µM (inactive)	27.4 µM (inactive)	76.7 µM (inactive)	27.8 µM (inactive)	> 100 µM (inactive)	36.3 µM (inactive)	34.2 µM (inactive)	67.5 µM (inactive)	> 100 µM (inactive)	91.2 µM (inactive)	74.1 µM (inactive)	17.9 µM (inactive)	> 100 µM (inactive)	> 100 µM (inactive)	
Cc1c(N2C(=O)C(Cl)C2/C=C/c2ccccc2)c(=O)n(-c2ccccc2)n1C (stereo unspecified)	20.8 µM (inactive)	14.1 µM (inactive)	24.2 µM (inactive)	20.4 µM (inactive)	22.4 µM (inactive)	14.9 µM (inactive)	14.4 µM (inactive)	20.3 µM (inactive)	11.3 µM (inactive)		25.4 µM (inactive)	24.7 µM (inactive)	6.41 µM (inactive)	26.4 µM (inactive)	15.8 µM (inactive)	17.1 µM (inactive)	34.1 µM (inactive)	17.2 µM (inactive)		26.9 µM (inactive)
CCOC(=O)CCC(NC(=O)C(Cc1ccc([N+](=O)[O-])cc1)NC(=O)OC(C)(C)C)C(=O)NC(CCC(=O)OCC)C(=O)OCC (stereo unspecified) (Boc-[Phe(4-NO2)]-Glu(OEt)-Glu(OEt)-OEt; configuration not given here)		21.2 µM (inactive)	17.9 µM (inactive)	22.3 µM (inactive)		16.8 µM (inactive)	21.1 µM (inactive)	17.4 µM (inactive)	18.1 µM (inactive)	15.6 µM (inactive)	27 µM (inactive)	28 µM (inactive)	> 10 µM (inactive)	38.5 µM (inactive)	17.4 µM (inactive)	20.3 µM (inactive)	15.6 µM (inactive)	16.8 µM (inactive)	15.8 µM (inactive)	16.6 µM (inactive)
